For four compounds, inhibition and IC50 results are on record in ChEMBL document CHEMBL1177828, “Design and evaluation of 3,6-di(hetero)aryl imidazo[1,2-a]pyrazines as inhibitors of checkpoint and other kinases” (Bioorg Med Chem Lett, 2010).

pIC50: −log10 of the molar value.

Assay [1] concerns the target T1, Serine/threonine-protein kinase D2 (Homo sapiens) (UniProt Q9BZL6).
T1 sequence (whole entry): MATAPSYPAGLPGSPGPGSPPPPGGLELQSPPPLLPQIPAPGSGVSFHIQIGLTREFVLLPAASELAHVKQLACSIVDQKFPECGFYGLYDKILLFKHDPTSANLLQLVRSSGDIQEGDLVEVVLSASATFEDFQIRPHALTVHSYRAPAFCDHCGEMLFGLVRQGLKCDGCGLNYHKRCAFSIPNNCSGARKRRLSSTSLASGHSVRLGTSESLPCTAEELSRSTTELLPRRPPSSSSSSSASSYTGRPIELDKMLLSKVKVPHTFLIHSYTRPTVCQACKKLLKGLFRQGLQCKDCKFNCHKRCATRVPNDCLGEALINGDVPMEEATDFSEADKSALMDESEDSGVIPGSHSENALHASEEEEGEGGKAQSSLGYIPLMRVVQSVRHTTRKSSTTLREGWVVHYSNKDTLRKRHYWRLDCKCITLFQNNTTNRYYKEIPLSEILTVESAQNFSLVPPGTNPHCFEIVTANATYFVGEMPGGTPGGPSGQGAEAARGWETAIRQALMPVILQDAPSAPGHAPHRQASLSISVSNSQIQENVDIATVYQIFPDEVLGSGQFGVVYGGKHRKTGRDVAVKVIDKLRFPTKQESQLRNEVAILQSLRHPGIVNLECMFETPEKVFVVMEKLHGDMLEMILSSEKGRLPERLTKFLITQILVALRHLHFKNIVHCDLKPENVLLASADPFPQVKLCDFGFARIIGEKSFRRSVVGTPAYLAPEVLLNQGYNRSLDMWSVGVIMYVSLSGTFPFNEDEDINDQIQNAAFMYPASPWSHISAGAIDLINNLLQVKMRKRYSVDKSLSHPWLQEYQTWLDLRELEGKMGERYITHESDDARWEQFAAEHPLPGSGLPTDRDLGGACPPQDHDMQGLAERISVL
The assay can be described thus: Inhibition of PKD2 at 10 uM by mobility shift assay.

Assay [2] concerns the target T2, MAP kinase-activated protein kinase 5 (Homo sapiens) (UniProt Q8IW41).
T2 sequence (whole entry): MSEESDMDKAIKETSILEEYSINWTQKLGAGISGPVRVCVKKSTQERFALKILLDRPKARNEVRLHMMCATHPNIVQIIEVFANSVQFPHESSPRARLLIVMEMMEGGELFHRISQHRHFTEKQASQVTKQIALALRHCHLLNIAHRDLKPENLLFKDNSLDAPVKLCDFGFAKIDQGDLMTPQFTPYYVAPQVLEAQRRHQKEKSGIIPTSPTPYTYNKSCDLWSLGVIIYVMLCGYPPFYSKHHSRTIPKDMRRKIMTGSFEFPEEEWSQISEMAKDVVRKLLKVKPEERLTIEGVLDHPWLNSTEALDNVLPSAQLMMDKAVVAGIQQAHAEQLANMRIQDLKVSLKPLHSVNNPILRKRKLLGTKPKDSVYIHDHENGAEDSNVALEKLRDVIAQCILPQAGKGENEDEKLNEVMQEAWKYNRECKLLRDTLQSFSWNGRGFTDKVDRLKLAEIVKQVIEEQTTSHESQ
The assay can be described thus: Inhibition of PRAK1 at 10 uM by mobility shift assay.

Assay [3] addresses Glycogen synthase kinase-3 beta (Homo sapiens, UniProt P49841). The assay can be described thus: Inhibition of GSK3-beta.
Assay [4] concerns the target T3, Serine/threonine-protein kinase Chk1 (Homo sapiens, UniProt O14757).
T3 sequence (O14757 whole entry): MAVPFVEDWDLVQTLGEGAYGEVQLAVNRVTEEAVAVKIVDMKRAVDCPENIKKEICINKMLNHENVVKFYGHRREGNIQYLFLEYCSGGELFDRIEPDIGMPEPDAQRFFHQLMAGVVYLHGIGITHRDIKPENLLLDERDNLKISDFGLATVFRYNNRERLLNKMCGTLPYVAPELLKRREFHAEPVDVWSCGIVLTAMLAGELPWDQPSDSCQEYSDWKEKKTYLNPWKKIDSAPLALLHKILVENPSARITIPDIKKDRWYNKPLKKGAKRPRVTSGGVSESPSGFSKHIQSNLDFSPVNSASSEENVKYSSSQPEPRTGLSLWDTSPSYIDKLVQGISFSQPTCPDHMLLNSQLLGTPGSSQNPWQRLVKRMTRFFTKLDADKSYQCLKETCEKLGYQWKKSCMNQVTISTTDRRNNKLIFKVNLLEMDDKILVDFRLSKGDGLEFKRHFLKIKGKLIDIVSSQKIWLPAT
Description: Inhibition of CHK1 by DELFIA.

Assay [5] concerns the target Tyrosine-protein kinase ABL1 (Homo sapiens, UniProt P00519). Description: Inhibition of ABL1 by Z-lite assay.
Assay [6] concerns the target RAC-alpha serine/threonine-protein kinase (Homo sapiens) (UniProt P31749). Description: Inhibition of AKT1 at 10 uM by mobility shift assay.
A short description of assay [7]: Inhibition of PKA at 10 uM by mobility shift assay.

RAC-alpha serine/threonine-protein kinase (Homo sapiens), sequence (P31749 whole entry): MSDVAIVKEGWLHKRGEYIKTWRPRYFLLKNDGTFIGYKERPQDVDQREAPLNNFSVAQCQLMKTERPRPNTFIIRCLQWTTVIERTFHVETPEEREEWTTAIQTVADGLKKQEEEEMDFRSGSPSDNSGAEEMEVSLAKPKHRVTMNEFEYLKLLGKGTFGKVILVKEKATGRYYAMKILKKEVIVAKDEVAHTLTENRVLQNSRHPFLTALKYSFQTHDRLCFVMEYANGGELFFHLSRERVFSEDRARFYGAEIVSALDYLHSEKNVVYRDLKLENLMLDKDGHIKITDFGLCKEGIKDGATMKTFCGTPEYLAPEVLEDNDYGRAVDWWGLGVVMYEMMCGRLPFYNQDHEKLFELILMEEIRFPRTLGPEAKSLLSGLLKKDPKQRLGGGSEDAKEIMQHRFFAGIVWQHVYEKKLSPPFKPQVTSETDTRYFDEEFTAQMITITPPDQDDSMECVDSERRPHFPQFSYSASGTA
Glycogen synthase kinase-3 beta, sequence (P49841 whole entry): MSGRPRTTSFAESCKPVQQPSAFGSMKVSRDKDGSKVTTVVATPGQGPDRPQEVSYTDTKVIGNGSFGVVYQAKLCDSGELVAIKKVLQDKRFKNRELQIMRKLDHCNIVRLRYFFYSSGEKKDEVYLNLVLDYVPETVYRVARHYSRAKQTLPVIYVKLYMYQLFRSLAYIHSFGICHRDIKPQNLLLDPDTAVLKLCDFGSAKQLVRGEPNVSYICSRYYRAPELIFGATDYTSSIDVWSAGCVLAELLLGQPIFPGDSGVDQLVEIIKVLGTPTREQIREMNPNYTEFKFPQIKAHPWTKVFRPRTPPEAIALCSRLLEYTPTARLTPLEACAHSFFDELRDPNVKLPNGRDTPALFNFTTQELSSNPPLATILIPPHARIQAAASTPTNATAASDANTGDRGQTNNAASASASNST
Tyrosine-protein kinase ABL1, sequence (P00519 whole entry): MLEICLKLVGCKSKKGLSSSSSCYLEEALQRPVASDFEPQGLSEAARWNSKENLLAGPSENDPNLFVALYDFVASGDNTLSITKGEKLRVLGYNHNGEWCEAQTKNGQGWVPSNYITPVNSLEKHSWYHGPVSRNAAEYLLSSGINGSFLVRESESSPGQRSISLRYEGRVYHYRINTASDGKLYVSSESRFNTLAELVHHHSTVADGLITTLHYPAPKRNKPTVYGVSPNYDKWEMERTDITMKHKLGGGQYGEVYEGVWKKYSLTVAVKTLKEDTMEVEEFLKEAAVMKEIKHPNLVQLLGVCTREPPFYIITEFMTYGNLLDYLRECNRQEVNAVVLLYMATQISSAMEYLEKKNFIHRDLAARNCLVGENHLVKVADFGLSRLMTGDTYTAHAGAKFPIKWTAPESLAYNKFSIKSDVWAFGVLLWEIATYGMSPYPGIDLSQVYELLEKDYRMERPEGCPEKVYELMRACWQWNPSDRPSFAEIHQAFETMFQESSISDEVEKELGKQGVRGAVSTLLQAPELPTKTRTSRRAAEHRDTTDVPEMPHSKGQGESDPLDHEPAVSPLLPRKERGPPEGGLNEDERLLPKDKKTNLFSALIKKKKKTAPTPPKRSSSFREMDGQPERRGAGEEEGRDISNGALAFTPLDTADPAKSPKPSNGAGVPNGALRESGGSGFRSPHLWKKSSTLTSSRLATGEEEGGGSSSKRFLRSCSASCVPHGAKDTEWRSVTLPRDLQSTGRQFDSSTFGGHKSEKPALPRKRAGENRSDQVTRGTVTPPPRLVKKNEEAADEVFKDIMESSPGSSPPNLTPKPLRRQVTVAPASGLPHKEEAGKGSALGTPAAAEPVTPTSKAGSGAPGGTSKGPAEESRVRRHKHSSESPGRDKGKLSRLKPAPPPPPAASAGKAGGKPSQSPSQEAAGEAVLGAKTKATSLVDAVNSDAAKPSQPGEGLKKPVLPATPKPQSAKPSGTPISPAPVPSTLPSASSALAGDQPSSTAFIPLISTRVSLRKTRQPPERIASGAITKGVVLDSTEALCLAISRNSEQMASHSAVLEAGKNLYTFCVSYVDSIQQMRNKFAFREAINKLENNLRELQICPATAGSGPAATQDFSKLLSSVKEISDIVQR

For the compound `c1ccc(-c2cnc3cnc(-c4ccncc4)cn23)cc1`, the inhibition (as a rule, the relative decrease from the control value, in per cent) in assay [1] is -6%; in assay [2] it was 5%. The pIC50 (in general, the negative decadic logarithm of the IC50, by convention in mol/L) in assay [3] was 5.51.

Regarding `c1n[nH]cc1-c1cnc2ncc(-c3cn[nH]c3)n2c1`, the negative-log IC50 (pIC50) in assay [4] was 5.30; in assay [5], 6.36. Besides, the inhibition in assay [1] is 11%; in assay [2] it was 6%; in assay [6] it was -6%.

`c1ccc2c(-c3cnc4cnc(-c5cn[nH]c5)cn34)c[nH]c2c1`: the inhibition in assay [1] came out at 55%; in assay [2] it was 35%; in assay [7] it was 2%; in assay [6], 11%.

For `OCc1cccc(-c2cn3c(-c4cn[nH]c4)cnc3cn2)c1`, the values for the inhibition in assay [1], in assay [2] and in assay [7] were 14%, 4% and -1%, respectively.
